Experimental data from ChEMBL document CHEMBL1127625, “Modulation of the kynurenine pathway in search for new neuroprotective agents. Synthesis and preliminary evaluation of (m-nitrobenzoyl)alanine, a potent inhibitor of kynurenine-3-hydroxylase” (J Med Chem, 1994).

Columns and labels:
Kynureninase = molecular target: T1, Kynureninase (Rattus norvegicus, UniProt P70712); test: Ability to inhibit kynureninase was determined in a competitive inhibition assay.
T1 sequence (P70712 whole entry): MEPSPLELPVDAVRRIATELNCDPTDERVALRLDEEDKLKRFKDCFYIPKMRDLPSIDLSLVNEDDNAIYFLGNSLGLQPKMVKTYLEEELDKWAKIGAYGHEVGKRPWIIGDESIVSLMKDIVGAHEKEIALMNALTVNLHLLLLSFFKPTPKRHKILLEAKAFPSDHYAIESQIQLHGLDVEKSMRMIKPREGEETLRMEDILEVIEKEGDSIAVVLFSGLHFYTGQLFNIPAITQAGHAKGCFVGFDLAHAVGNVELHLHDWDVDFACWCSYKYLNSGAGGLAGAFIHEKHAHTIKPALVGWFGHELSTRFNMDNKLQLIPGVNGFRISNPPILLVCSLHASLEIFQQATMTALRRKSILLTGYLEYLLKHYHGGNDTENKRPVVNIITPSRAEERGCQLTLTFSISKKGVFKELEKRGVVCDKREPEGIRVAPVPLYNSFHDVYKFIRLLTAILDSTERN

Mus musculus [1] = test: Sedative and anticonvulsant effects at dose 200 mg/kg, administered intraperitoneally; value expressed as death /tested =0/13; format: ADME, organism-based; parameters: dose 200 mg/kg, route intraperitoneal; conditions: in vivo, ip
Mus musculus [2] = test: Sedative and anticonvulsant effects at dose 400 mg/kg, administered intraperitoneally; value expressed as death /tested =2/6; format: organism-based; parameters: dose 400 mg/kg, route intraperitoneal; conditions: in vivo, ip
Mus musculus [3] = test: Sedative and anticonvulsant effects at dose 400 mg/kg, administered intraperitoneally; value expressed as clonic /tested =4/6; format: functional; conditions: route intraperitoneal
Mus musculus [4] = test: Sedative and anticonvulsant effects at dose 200 mg/kg, administered intraperitoneally; value expressed as clonic /tested =6/13; format: functional; conditions: route intraperitoneal
Mus musculus [5] = test: Sedative and anticonvulsant effects at dose 400 mg/kg, administered intraperitoneally; value expressed as tonic /tested =2/6; format: functional; conditions: route intraperitoneal
Mus musculus [6] = test: Sedative and anticonvulsant effects at dose 200 mg/kg, administered intraperitoneally; value expressed as tonic /tested =1/13; format: functional; conditions: route intraperitoneal
Rattus norvegicus [7] = test: Effect on kynurenic acid (KYNA) content in rat blood at dose 400 mg/kg administered intraperitoneally; format: functional; conditions: route intraperitoneal
Rattus norvegicus [8] = test: Effect on kynurenic acid (KYNA) content in rat brain at dose 400 mg/kg administered intraperitoneally; format: functional; conditions: route intraperitoneal
Rattus norvegicus [9] = test: Effect on kynurenic acid (KYNA) content in rat liver at dose 400 mg/kg administered intraperitoneally; format: functional; conditions: route intraperitoneal
Rattus norvegicus [10] = test: Effect on […] (KYN) content in rat blood at dose 400 mg/kg administered intraperitoneally; format: functional; conditions: route intraperitoneal
Rattus norvegicus [11] = test: Effect on […] (KYN) content in rat brain at dose 400 mg/kg administered intraperitoneally; format: functional; conditions: route intraperitoneal
Rattus norvegicus [12] = test: Effect on […] (KYN) content in rat liver at dose 400 mg/kg administered intraperitoneally; format: functional; conditions: route intraperitoneal
[13] = molecular target: Kynurenine 3-monooxygenase (Rattus norvegicus) (UniProt O88867); test: Differences in inhibition of kynurenine-3-hydroxylase by m-NBA versus compound is determined
[14] = molecular target: Kynurenine 3-monooxygenase (Rattus norvegicus, UniProt O88867); test: Ability to inhibit kynurenine-3-hydroxylase was determined in a competitive inhibition assay.
Chain of Kynurenine 3-monooxygenase (O88867 whole entry): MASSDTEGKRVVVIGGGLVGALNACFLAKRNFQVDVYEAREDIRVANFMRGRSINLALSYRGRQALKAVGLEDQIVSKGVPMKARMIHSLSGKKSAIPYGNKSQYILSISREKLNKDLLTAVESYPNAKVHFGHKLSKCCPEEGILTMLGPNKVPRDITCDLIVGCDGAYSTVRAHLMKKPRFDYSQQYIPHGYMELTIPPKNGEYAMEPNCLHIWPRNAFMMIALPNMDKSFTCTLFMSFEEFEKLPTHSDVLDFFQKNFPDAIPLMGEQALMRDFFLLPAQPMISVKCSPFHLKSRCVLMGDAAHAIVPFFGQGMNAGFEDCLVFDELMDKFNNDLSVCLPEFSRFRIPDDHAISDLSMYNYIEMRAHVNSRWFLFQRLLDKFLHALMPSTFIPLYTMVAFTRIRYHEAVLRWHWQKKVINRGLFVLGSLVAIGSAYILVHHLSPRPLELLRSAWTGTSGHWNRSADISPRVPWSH

Chain of Kynurenine 3-monooxygenase (Rattus norvegicus) (O88867 whole entry, looked up): as the sequence (O88867 whole entry) above

Row | Compound | IC50 (Kynureninase) | Death (Mus musculus [1]) | Death (Mus musculus [2]) | Clonic (Mus musculus [3]) | Clonic (Mus musculus [4]) | Tonic (Mus musculus [5]) | Tonic (Mus musculus [6]) | Effect (Rattus norvegicus [7]) | Effect (Rattus norvegicus [8]) | Effect (Rattus norvegicus [9]) | Effect (Rattus norvegicus [10]) | Effect (Rattus norvegicus [11]) | Effect (Rattus norvegicus [12]) | -Log IC50/IC50 [13] | IC50 [14]
1 | NC(CC(=O)c1cccc([N+](=O)[O-])c1)C(=O)O (configuration not stated) | 100 µM | 0 | 2 | 4 | 6 | 2 | 1 | 120 pmol/g | 150 pmol/g | 250 pmol/g | 16000 pmol/g | 4000 pmol/g | 4000 pmol/g | – | –
2 | NC(CC(=O)c1ccc([N+](=O)[O-])cc1)C(=O)O (configuration not stated) | 900 µM | – | – | – | – | – | – | – | – | – | – | – | – | 2.52 | 300 µM
3 | NC(CC(=O)c1ccccc1[N+](=O)[O-])C(=O)O (configuration not stated) [(ortho-nitrobenzoyl)alanine] | 100 µM | – | – | – | – | – | – | – | – | – | – | – | – | 2.94 | 2000 µM
4 | NC(CC(=O)c1cccnc1)C(=O)O (configuration not stated) [NICOTINOYLALANINENAL] | 800 µM | – | – | – | – | – | – | – | – | – | – | – | – | 2.89 | 900 µM
